Results from publication PMC7942396, “Drug Repurposing Screen for Compounds Inhibiting the Cytopathic Effect of SARS-CoV-2” (Frontiers in Pharmacology, 2021).
Where two headings read alike, the source gives them in different places.

What was measured:
[1] = system: SARS-CoV-2 (USA_WA1/2020); assay: microbe, parasite or virus in culture; assay type: cell-based; conditions: for EC50: read-out: CPE EC50
[2] = system: Vero E6 cells
[3] = SARS-CoV-2 CPE assay, Vero E6 cells, confirmed anti-SARS-CoV-2 compounds
[4] = SARS-CoV-2 CPE assay, Vero E6 cells, efficacy
[5] = cytotoxicity counter-assay, Vero E6 cells without virus
[6] = […], DMSO 0%, no-virus control 100%, hit confirmation
[7] = Vero E6 cells without virus, 72 h
[8] = read-out: Cytotox CC50, cytotoxicity counter-assay, Vero E6 cells without virus
[9] = SARS-CoV-2 CPE assay, Vero E6 cells

Structure (SMILES) | EC50 [1, 3] [µM] | CPE % Efficacy [1, 4] [%] | % Cytotox [2, 5] [%] | CC50 [2, 8] [µM] | other results
CC(=O)O[C@@H]1C[C@H]2C(C)(C)C(=O)C=C[C@]2(C)[C@H]2CC[C@]3(C)C(=CC(=O)O[C@H]3c3ccoc3)[C@@]21C [DEOXYGEDUNIN] | 11.2 | 107.7 | 0.0 |  | 
CCC[C@@H](NC(=O)N1C(=O)C(CC)(CC)[C@@H]1Oc1ccc(C(=O)N2CCN(C)CC2)cc1)c1ccc2c(c1)OCO2 [DMP 777, reference compound] |  |  |  |  | CPE % Efficacy [1, 6]: 92.5%; EC50 [1]: 10 µM; % Cytotox [2, 7]: <30%
CC1(C)CCC(C)(C)c2cc(C#Cc3ccc(C(=O)O)cc3)ccc21 [EC 23] | 3.98 | 110.5 | 74.0 | 12.6 | 
CC(C)c1cccc2c(-c3ccccc3)cc(-c3ccc(-c4ccc(C(=O)O)cc4)[nH]3)nc12 [ER 50891] | 11.2 | 88.0 | 16.9 | 15.8 | 
CC(C)C[C@H]1C(=O)O[C@H](Cc2ccc(N3CCOCC3)cc2)C(=O)N(C)[C@@H](CC(C)C)C(=O)O[C@H](C)C(=O)N(C)[C@@H](CC(C)C)C(=O)O[C@H](Cc2ccc(N3CCOCC3)cc2)C(=O)N(C)[C@@H](CC(C)C)C(=O)O[C@H](C)C(=O)N1C [Emodepside] | 6.31 | 74.5 | 32.2 | 8.91 | 
O=C(NCCCCN1CCN(c2cccc(Cl)c2Cl)CC1)c1cc2ccccc2s1 [FAUC-365] | 4.47 | 36.5 | 35.5 | 12.6 | 
CS(=O)(=O)O.Cc1ncc(NC(=O)c2ccc(CN3CCN(C)CC3)c(C(F)(F)F)c2)cc1Nc1nccc(-c2cccnc2)n1 [Flumatinib mesylate] |  |  | 11.1 | 4.47 | CPE % Efficacy [1, 9]: 134.3%; EC50 [1, 9]: 12.6 µM
COc1ccc(NC(=O)c2ccc(-c3ccc(-c4nnc(C)o4)cc3C)cc2)cc1N1CCN(C)CC1 [GMC 2-29, reference compound] |  |  |  |  | CPE % Efficacy [1, 6]: 117.2%; EC50 [1]: 7.9 µM; % Cytotox [2, 7]: <30%
Cc1nnc(-c2ccc(-c3ccc(C(=O)Nc4ccc(O)c(N5CCN(C)CC5)c4)cc3)c(C)c2)o1 [GMC 2-113, reference compound] |  |  |  |  | CPE % Efficacy [1, 6]: 129.7%; EC50 [1]: 10 µM; % Cytotox [2, 7]: <30%
NC(=O)c1cccc(-c2cc(Nc3ccc(OC(F)(F)F)cc3)ncn2)c1 [GNF-2] |  |  | 0.0 |  | CPE % Efficacy [1, 9]: 63.4%; EC50 [1, 9]: 11.2 µM
COc1cccc(-n2c(=O)[nH]c3cc(Cl)n(-c4ccc(-c5cccc(OC)c5O)cc4)c3c2=O)c1 [GSK621] | 11.2 | 77.9 | 58.4 |  | 
Cc1cc(C)c(CNC(=O)c2cc(-c3ccc(N4CCN(C)CC4)nc3)cc3c2c(C)cn3C(C)C)c(=O)[nH]1 [GSK-503?EZH2 inhibitor] |  |  | 0.0 |  | CPE % Efficacy [1, 9]: 111.9%; EC50 [1, 9]: 12.6 µM
O=C(/C=C/c1ccc(Cl)cc1)N1CCC2(CC1)CN(Cc1ccc(Cl)c(Cl)c1)C(=O)O2 [GSK-682753A] |  |  | 38.6 | 12.6 | CPE % Efficacy [1, 9]: 67.7%; EC50 [1, 9]: 11.2 µM
COc1cc(-n2cnc3cc(-c4ccc(Cl)cc4)sc3c2=O)ccc1OCCN1CCCC1 [GW 803430, reference compound] |  |  |  |  | CPE % Efficacy [1, 6]: 93.3%; EC50 [1]: 3.5 µM; % Cytotox [2, 7]: <30%
CC(C)c1onc(-c2c(Cl)cccc2Cl)c1COc1ccc(/C=C/c2cccc(C(=O)O)c2)c(Cl)c1 [GW-4064X] |  |  | 60.4 |  | CPE % Efficacy [1, 9]: 73.5%; EC50 [1, 9]: 12.6 µM
CCCCCCCCC(=O)N[C@H](CN1CCCC1)[C@H](O)c1ccc2c(c1)OCCO2 [Genz-123346 (free base), reference compound] |  |  |  |  | CPE % Efficacy [1, 6]: 99.4%; EC50 [1]: 10 µM; % Cytotox [2, 7]: <30%

Structure (SMILES) | EC50 [1, 3] [µM] | CPE % Efficacy [1, 4] [%] | % Cytotox [2, 5] [%] | CC50 [2, 8] [µM] | other results
Cc1c(C(=O)Nc2cccc(C(F)(F)F)c2)cc(-c2ccccc2)n1CCCN1CCOCC1 [HC-067047] | 10 | 64.2 | 45.7 |  | 
Cc1nc(Nc2cnn(C3CCNCC3)c2)nc2c1N(C)C(=O)c1cc3ccccc3cc1N2C [HTH-01-015] | 11.2 | 95.2 | 40.5 | 12.6 | 
N#Cc1c(C2CCNCC2)cc(-c2c(O)cccc2OCC2CC2)nc1N [IKK-2 inhibitor VIII, reference compound] |  |  |  |  | CPE % Efficacy [1, 6]: 91.7%; EC50 [1]: 7.1 µM; % Cytotox [2, 7]: <30%
O=C(c1ccc(Nc2nccc(-c3cc4ccccc4s3)n2)cc1)N1CCC(N2CCCC2)CC1 [IKK-16] | 3.55 | 110.2 | 107.2 | 10 | 
CC1(C)CN2C(CSC(=NC3CCCCC3)NC3CCCCC3)=CSC2=N1.Cl.Cl [IT1t dihydrochloride, reference compound] |  |  |  |  | CPE % Efficacy [1, 6]: 96.3%; EC50 [1]: 3.5 µM; % Cytotox [2, 7]: <30%
C[C@H](CCC(=O)O)C[C@H](C)C[C@H](C)C(=O)/C=C(\O)[C@H](C)C[C@H](C)C/C=C/[C@@H](C)[C@@H](O)[C@@H](C)[C@@H](O)C[C@@H]1CC[C@@](C)([C@H]2CC[C@@](C)([C@@H](C)O)O2)O1 [Ionomycin(Calciumsalt)] | 7.8 | 90.4 | 69.7 | 6.95 | 
CCCCN1[C@@H]2CC[C@H]1CC(OC(c1ccc(F)cc1)c1ccc(F)cc1)C2.Cl (some centres unmarked) [JHW 007 hydrochloride] | 7.08 | 87.4 | 38.8 | 12.6 | 
COc1ccccc1Nc1nc(-c2sc(NC(C)=O)nc2C)cs1 [JNJ0966] | 11.2 | 38.6 | 61.5 | 11.2 | 
CN(C)CC(=O)N1CCC(c2ccc(NC(=O)c3nc(C#N)c[nH]3)c(C3=CCCCC3)c2)CC1 [JNJ-28312141] |  |  | 60.9 | 12.6 | CPE % Efficacy [1, 9]: 37.8%; EC50 [1, 9]: 14.1 µM
COc1ccc2c(c1)CN(C(=O)CCN1CCC(Cc3ccccc3)CC1)CCS2 [JTV519 Hemifumarate, reference compound] |  |  |  |  | CPE % Efficacy [1, 6]: 85.7%; EC50 [1]: 5.5 µM; % Cytotox [2, 7]: <30%
COc1ccc2sc(NC(c3ccc(OC(F)F)cc3)c3ccc4cccnc4c3O)nc2c1 (centres unmarked) [KIN1408] | 0.89 | 69.8 | 77.9 | 0.71 | 
COc1ccc(S(=O)(=O)N(CCO)c2ccccc2CN(C)C/C=C/c2ccc(Cl)cc2)cc1 [KN-93] | 11.2 | 69.0 | 34.4 | 11.2 | 
CC(=O)O/N=C1\C(=O)N(Cc2cc(Cl)ccc2Cl)c2ccc(Cl)cc21 [LDN-57444] | 11.2 | 129.8 |  |  | % Cytotox [2]: 40.6%; CC50 [2]: 12.6 µM
COc1cc(-c2cc(-c3ccc(N4CCNCC4)cc3)cnc2C)cc(OC)c1OC [LDN-214117] |  |  | 53.6 | 11.2 | CPE % Efficacy [1, 9]: 39.2%; EC50 [1, 9]: 11.2 µM
CS(=O)(=O)NCC1CCC(Nc2nc3c(s2)CCSc2ccccc2-3)CC1 (centres unmarked) [LU AA33810] |  |  | 0.0 |  | CPE % Efficacy [1, 9]: 48.3%; EC50 [1, 9]: 12.6 µM
CC(C)(C)Cn1c(N)nc2ccc(-c3[nH]c(C(C)(C)C)nc3-c3ccc(F)cc3)nc21 [LY-2228820 (ralimetinib)] | 1.58 | 85.9 | 78.9 | 12.6 | 
